Results reported in the CheMixHub ionic liquid set.

Experiment: xn = mol fraction of the nth substance listed

CCCC[N+](C)(CCCC)CCCC.[Cl-] + N[C@@H](Cc1ccccc1)C(=O)O + O
viscosity [mPa·s], 101.3 kPa
Conditions | 293.15 K | 298.15 K | 303.15 K | 308.15 K | 313.15 K
x2 = 0, x1 = 0.00144 | – | – | – | – | 0.7
x2 = 0.0003636, x1 = 0.00072 | 0.99 | 0.89 | 0.76 | 0.67 | –
x2 = 0.0003667, x1 = 0.001439 | 0.98 | 0.9 | 0.78 | 0.79 | 0.71
x2 = 0.000726, x1 = 0.0007198 | 1 | 0.9 | 0.77 | 0.68 | –
x2 = 0.0007319, x1 = 0.001438 | 0.99 | 0.91 | 0.8 | 0.8 | 0.72
x2 = 0.00109, x1 = 0.0007195 | 1.02 | 0.92 | 0.78 | 0.69 | –
x2 = 0.001099, x1 = 0.001438 | 1.01 | 0.92 | 0.81 | 0.81 | 0.74
x2 = 0.001452, x1 = 0.0007192 | 1.03 | 0.93 | 0.79 | 0.71 | –
x2 = 0.001466, x1 = 0.001437 | 1.02 | 0.94 | 0.82 | 0.83 | 0.75
x2 = 0.001813, x1 = 0.000719 | 1.04 | 0.94 | 0.81 | 0.72 | –
x2 = 0.001828, x1 = 0.001437 | 1.03 | 0.95 | 0.84 | 0.84 | 0.76
x2 = 0.002175, x1 = 0.0007187 | 1.06 | 0.96 | 0.82 | 0.73 | –
x2 = 0.002194, x1 = 0.001436 | 1.05 | 0.96 | 0.85 | 0.85 | 0.78
x2 = 0.002538, x1 = 0.0007185 | 1.07 | 0.97 | 0.83 | 0.75 | –
x2 = 0.002562, x1 = 0.001436 | 1.06 | 0.98 | 0.86 | 0.87 | 0.79

CC(=O)[O-].CC[n+]1ccn(C)c1 + O
Conditions | electrical conductivity [S/m] | viscosity [mPa·s]
293.1 K, 101 kPa, x2 = 0.517 | – | 59.4
293.1 K, 101 kPa, x2 = 0.578 | – | 51.1
293.1 K, 101 kPa, x2 = 0.705 | – | 32.7
293.15 K, 100 kPa, x1 = 0.7987 | 0.314 | –
293.15 K, 100 kPa, x1 = 1 | 0.223 | –
293.15 K, 100 kPa, x2 = 0.2088 | – | 138.9
293.15 K, 101.3 kPa, x2 = 0 | 0.243 | –
293.15 K, 101.3 kPa, x2 = 0.0774 | 0.327 | –
293.15 K, 101.3 kPa, x2 = 0.1429 | 0.562 | –
293.15 K, 101.3 kPa, x2 = 0.3065 | 1.016 | –
293.15 K, 101.3 kPa, x2 = 0.4381 | 1.537 | –
293.15 K, 101.3 kPa, x2 = 0.5278 | 2.03 | –
293.15 K, 101.3 kPa, x2 = 0.7257 | 4.136 | –
293.15 K, 101.3 kPa, x2 = 0.8083 | 5.417 | –
293.15 K, 101.3 kPa, x2 = 0.8554 | 6.014 | –
293.15 K, 101.3 kPa, x2 = 0.8891 | 5.902 | –
293.15 K, 101.3 kPa, x2 = 0.9279 | 2.979 | –
293.15 K, 101.3 kPa, x2 = 0.9308 | 2.707 | –
293.15 K, 101.3 kPa, x2 = 0.9425 | 1.866 | –
293.15 K, 101.3 kPa, x2 = 0.9559 | 1.121 | –
293.15 K, 101.3 kPa, x2 = 0.9625 | 0.8 | –
298.15 K, 101 kPa, x2 = 0 | – | 132.9
298.15 K, 101 kPa, x2 = 0.0992 | – | 109.7
298.15 K, 101 kPa, x2 = 0.266 | – | 85
298.15 K, 101 kPa, x2 = 0.4207 | – | 59.5
298.15 K, 101 kPa, x2 = 0.5408 | – | 44.4
298.15 K, 101 kPa, x2 = 0.6135 | – | 35.9
303.15 K, 100 kPa, x1 = 0.2003 | 2.37 | –
303.15 K, 100 kPa, x1 = 0.7987 | 0.527 | –
303.15 K, 100 kPa, x2 = 0.4 | – | 52.7
303.15 K, 101 kPa, x2 = 0.132 | – | 84
313.15 K, 100 kPa, x2 = 0.2088 | – | 47.2
313.15 K, 100 kPa, x2 = 0.4 | – | 33.9
313.15 K, 101 kPa, x2 = 0.188 | – | 46.7
313.15 K, 101 kPa, x2 = 0.5408 | – | 23.49
323.15 K, 100 kPa, x1 = 0.5984 | 1.63 | –
323.15 K, 100 kPa, x2 = 0.2088 | – | 30.12
323.15 K, 101 kPa, x2 = 0.132 | – | 33.1
328.15 K, 101 kPa, x2 = 0.0992 | – | 27
328.15 K, 101 kPa, x2 = 0.4207 | – | 17.5
328.15 K, 101 kPa, x2 = 0.6805 | – | 9.43
328.15 K, 101 kPa, x2 = 0.8134 | – | 5.3
333.1 K, 101 kPa, x2 = 0.517 | – | 12.27
333.1 K, 101 kPa, x2 = 0.578 | – | 11
333.15 K, 100 kPa, x1 = 0.9481 | 1.31 | –
333.15 K, 100 kPa, x1 = 1 | 1.31 | –
333.15 K, 101 kPa, x2 = 0.188 | – | 21.4
333.15 K, 101 kPa, x2 = 0.266 | – | 19.5
343.15 K, 100 kPa, x1 = 1 | 1.75 | –
343.15 K, 100 kPa, x2 = 0.2088 | – | 15.07
343.15 K, 100 kPa, x2 = 0.4 | – | 12.24
343.15 K, 100 kPa, x2 = 0.8023 | – | 3.8
343.15 K, 101 kPa, x2 = 0.222 | – | 14.52
343.15 K, 101 kPa, x2 = 0.5408 | – | 8.98
343.15 K, 101 kPa, x2 = 0.6805 | – | 6.22
353.15 K, 101 kPa, x2 = 0.102 | – | 12.96
353.15 K, 101 kPa, x2 = 0.132 | – | 12.58
353.15 K, 101 kPa, x2 = 0.188 | – | 11.89
353.15 K, 101 kPa, x2 = 0.355 | – | 10.11
363.15 K, 101 kPa, x2 = 0.072 | – | 10.28
363.15 K, 101 kPa, x2 = 0.102 | – | 10.09
363.15 K, 101 kPa, x2 = 0.132 | – | 9.82
373.15 K, 101 kPa, x2 = 0.188 | – | 7.48

CCCCCCCCCCCCCC[N+](C)(C)C.[Br-] + O
298.15 K, 101 kPa
Conditions | viscosity [mPa·s]
x1 = 2.973e-05 | 0.8984
x1 = 4.144e-05 | 0.8992
x1 = 4.541e-05 | 0.9002
x1 = 6.289e-05 | 0.9005
x1 = 6.739e-05 | 0.9013
x1 = 7.262e-05 | 0.9019
x1 = 0.0001005 | 0.9029
x1 = 0.0001191 | 0.9053
x1 = 0.000178 | 0.9083
